Common to all, as to assay: relative viability (nuclei count vs DMSO), 5 days (fraction); higher = more cells survive
Compound in the assay “Dactolisib + Tozasertib”: Cn1c(=O)n(-c2ccc(C(C)(C)C#N)cc2)c2c3cc(-c4cnc5ccccc5c4)ccc3ncc21 [Dactolisib] + Cc1cc(Nc2cc(N3CCN(C)CC3)nc(Sc3ccc(NC(=O)C4CC4)cc3)n2)n[nH]1 [Tozasertib] (partner 0.1 µM)
Summed up:
(§1)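 For relative viability, nuclei counts in treated wells were divided by those in vehicle wells. Lung cancer cell lines had been pin-tool dosed in 1536-well plates the day after seeding and cultured for 5 days, then fixed and stained in one step (final 0.05% Triton X-100, 1% formaldehyde, 1 ug/ml Hoechst) and imaged at 4×. Doses were one drug alone or a fixed anchor-drug dose plus five library-drug doses (not always all listed) in √10 steps, and values are duplicate-plate medians.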

Compound in the assay “AZ505 + Navitoclax”: C1CCC(CC1)N(CCNCCC2=C3C(=C(C=C2)O)NC(=O)CO3)C(=O)CCNCCC4=CC(=C(C=C4)Cl)Cl [AZ505] + CC1(C)CCC(c2ccc(Cl)cc2)=C(CN2CCN(c3ccc(C(=O)NS(=O)(=O)c4ccc(N[C@H](CCN5CCOCC5)CSc5ccccc5)c(S(=O)(=O)C(F)(F)F)c4)cc3)CC2)C1 [Navitoclax] (partner 0.5 µM)
The gist of the method:
as §1

Compound in the assay “AZ505 + OSI-027”: C1CCC(CC1)N(CCNCCC2=C3C(=C(C=C2)O)NC(=O)CO3)C(=O)CCNCCC4=CC(=C(C=C4)Cl)Cl [AZ505] + COc1cccc2cc(-c3nc([C@H]4CC[C@H](C(=O)O)CC4)n4ncnc(N)c34)[nH]c12 [OSI-027] (partner 0.5 µM)
The gist of the method: as §1

Compound in the assay “Dactolisib + Linsitinib”: Cn1c(=O)n(-c2ccc(C(C)(C)C#N)cc2)c2c3cc(-c4cnc5ccccc5c4)ccc3ncc21 [Dactolisib] + C[C@]1(O)C[C@@H](c2nc(-c3ccc4ccc(-c5ccccc5)nc4c3)c3c(N)nccn32)C1 [Linsitinib] (partner 1 µM)
Summed up:
as §1

UMC-11: the relative viability in the assay with Dactolisib + Tozasertib (first compound 0.002 µM) was determined as 0.214; with Dactolisib + Tozasertib (first compound 0.006325 µM), 0.198; with Dactolisib + Tozasertib (first compound 0.02 µM), 0.216; with Dactolisib + Tozasertib (first compound 0.06325 µM) it was 0.221; in the assay with Dactolisib + Tozasertib (first compound 0.2 µM), 0.23; with AZ505 + Navitoclax (first compound 0.08 µM) it was 0.26. In addition, the relative viability with AZ505 + Navitoclax (first compound 0.253 µM) turned out to be 0.295; with AZ505 + Navitoclax (first compound 0.8 µM) it was 0.327; with AZ505 + Navitoclax (first compound 2.53 µM) it was 0.334; with AZ505 + Navitoclax (first compound 8 µM) it was 0.373; with AZ505 + OSI-027 (first compound 0.08 µM), 0.413; with AZ505 + OSI-027 (first compound 0.253 µM) it was 0.53. Besides, the relative viability with AZ505 + OSI-027 (first compound 0.8 µM) amounted to 0.452; in the assay with AZ505 + OSI-027 (first compound 2.53 µM) it was 0.476; in the assay with AZ505 + OSI-027 (first compound 8 µM), 0.492; in the assay with Dactolisib + Linsitinib (first compound 0.002 µM), 1.02; in the assay with Dactolisib + Linsitinib (first compound 0.006325 µM), 0.987; in the assay with Dactolisib + Linsitinib (first compound 0.02 µM), 0.671. Also, the relative viability with Dactolisib + Linsitinib (first compound 0.06325 µM) was determined as 0.286; in the assay with Dactolisib + Linsitinib (first compound 0.2 µM), 0.262.
